# Structures can show the parent of a compound that is named as a salt. Where two headings read alike, the source gives them in different places.
# Tests used:
# [1] = molecular target: His-tagged KRAS G12D protein (Homo sapiens (Human), UniProt P01116, G12D); assay: KRAS G12D TR-FRET Assay; type: binding; conditions: read-out: KRAS G12D Binding IC50
# Outline: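 Each incubation ran at room temperature: enzyme with compound for 30 minutes, peptide for one hour, and detection reagents (0.4 nM europium anti-6×His, 5 nM streptavidin-d2) for one hour more. Protein and peptide stocks were each diluted to 20 nM before addition.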
# [2] = molecular target: GDP-bound KRAS protein (aa 1-169), containing both G12D and C118A amino acid substitutions (Homo sapiens (Human), UniProt P01116, C118A/G12D); assay: KRAS G12D Coupled Nucleotide Exchange Assay; type: biochemical; conditions: read-out: KRAS G12D Coupled Exchange IC50
# Chain of GDP-bound KRAS protein (aa 1-169), containing both G12D and C118A amino acid substitutions (P01116 other isoform, or with tags, fused parts or gaps G12D/C118A): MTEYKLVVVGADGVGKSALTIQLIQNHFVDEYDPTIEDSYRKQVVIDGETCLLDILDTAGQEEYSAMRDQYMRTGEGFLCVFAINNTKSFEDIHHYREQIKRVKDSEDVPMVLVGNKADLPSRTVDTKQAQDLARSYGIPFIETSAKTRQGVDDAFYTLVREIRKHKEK
# [3] = tested on: Phosphorylation of ERK1/2 in AsPC-1 cells; assay: Phospho-ERK1/2 MSD Assay; type: cell-based, human; conditions: read-out: 2 h p-ERK (AsPC-1 cells), IC50
# Outline: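 Read-out: MSD electrochemiluminescent detection of phosphorylated ERK1/2 in whole-cell lysates, fitted to a 4-parameter logistic curve for IC50. Prior to lysis, AsPC-1 cells (25,000 per well) received a 2 h compound dose-response at 37 °C.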
# AsPC-1 cells = assay: AsPC-1 CTG Assay (CellTiter-Glo cell viability); type: cell-based, human; conditions: AsPC-1, 72 h, first value of the cell, read-out: G12D/C/V Cell Proliferation CTG (72 h) AsPC-1
# Outline: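 IC50 values derive from 4-parameter logistic fits of CellTiter-Glo luminescence, expressed relative to DMSO. Compound dilution series were applied to overnight-seeded AsPC-1 or SW620 cells (RPMI 1640, 10% FBS) for 72 h at 37 °C, 5% CO2.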
# MIA PaCa-2 cells = assay: MIA PaCa-2 CTG Assay (CellTiter-Glo cell viability); type: cell-based, human; conditions: Mia PaCa-2, 72 h, second value of the cell, read-out: G12D/C/V Cell Proliferation CTG (72 h) Mia PaCa-2
# Description: MIA PaCa-2 CTG Assay Protocol
# MIA PaCa-2 (human pancreatic carcinoma; ATCC CRL-1420) cells were cultured in RPMI 1640 medium containing 10% fetal bovine serum and 1× penicillin/streptomycin/L-glutamine. Cells were seeded in 384-well plates at a density of 1.67E+04 cells/mL and incubated at 37° C., 5% CO2, overnight. Serially-diluted compound or DMSO was added to the cells, and plates were incubated at 37° C., 5% CO2 for 72 h. Cell viability was measured using a CellTiter-Glo® Luminescent Cell Viability Assay kit (Promega) according to the manufacturer's protocol. The luminescence signal of treated samples was normalized to DMSO control, and data were analyzed using a 4-parameter logistic model to calculate IC50 values.
# Chain of His-tagged KRAS G12D protein (P01116 other isoform, or with tags, fused parts or gaps G12D): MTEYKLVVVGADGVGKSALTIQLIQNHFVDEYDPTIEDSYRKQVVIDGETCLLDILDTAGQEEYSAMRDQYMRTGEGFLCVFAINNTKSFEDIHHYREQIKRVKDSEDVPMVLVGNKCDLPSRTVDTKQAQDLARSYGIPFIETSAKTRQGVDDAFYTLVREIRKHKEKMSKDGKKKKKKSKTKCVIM
IC50 [1],IC50 [2],"IC50 ([3]; Homo sapiens, ASPC1, 2 h)","IC50 (AsPC-1 cells; Homo sapiens, ASPC1, 72 h)",IC50 (MIA PaCa-2 cells; Homo sapiens),IC50 ([3]; 2 h),IC50 (AsPC-1 cells),IC50 (MIA PaCa-2 cells),Compound
0.004 µM,0.002 µM,0.084 µM,0.574 µM,0.157 µM,–,–,–,"C[C@@]12CCN(C1)c1nc(OC[C@@]34CCCN3C[C@H](F)C4)nc3c(F)c(ncc13)-c1cc(O)cc3ccc(F)c(c13)CCCC(=O)N2 [Example 10, (14R)-21,30-Difluoro-8-(((2R,7aS)-2-fluorotetrahydro-1H-pyrrolo[1,2-a]pyrrol-7a(5H)-yl)methoxy)-26-hydroxy-14-methyl-3,7,9,11,15-pentaazahexacyclo[18.7.1.1˜2,6˜.1˜11,14˜.0˜5,10˜.0˜24,28˜]triaconta-1(27),2(30),3,5,7,9,20,22,24(28),25-decaen-16-one 2,2,2-trifluoroacetate salt]"
0.003 µM,0.001 µM,0.005 µM,0.108 µM,0.01 µM,–,–,–,"CN(C)CC1(COc2nc3c4cnc(c(F)c4n2)-c2cc(O)cc4ccc(F)c(c24)CCCC(=O)N[C@]2(C)CCCN3C2)CC1 [Example 22, (15R)-8-((1-((Dimethylamino)methyl)cyclopropyl)methoxy)-22,31-difluoro-27-hydroxy-15-methyl-3,7,9,11,16-pentaazahexacyclo[19.7.1.1˜2,6˜.1˜11,15˜.0˜5,10˜.0˜25,29˜]hentriaconta-1(28),2(31),3,5,7,9,21,23,25(29),26-decaen-17-one bis(2,2,2-trifluoroacetate)]"
0.004 µM,0.002 µM,0.036 µM,0.35 µM,0.2 µM,–,–,–,"C[C@@]12CCCN(C1)c1nc(OC[C@@]34CCCN3C[C@H](F)C4)nc3c(F)c(ncc13)-c1cc(O)cc3ccc(F)c(c13)CCCCC(=O)N2 [Example 47, (15R)-23,32-Difluoro-8-(((2R,7aS)-2-fluorotetrahydro-1H-pyrrolo[1,2-a]pyrrol-7a(5H)-yl)methoxy)-28-hydroxy-15-methyl-3,7,9,11,16-pentaazahexacyclo[20.7.1.1˜2,6˜.1˜11,15˜.0˜5,10˜.0˜26,30˜]dotriaconta-1(30),2(32),3,5,7,9,22,24,26,28-decaen-17-one]"
0.003 µM,0.001 µM,0.016 µM,0.23 µM,0.2 µM,–,–,–,"O=C1CCCc2c(F)ccc3cccc(c23)-c2ncc3c(nc(OC[C@@]45CCCN4C[C@H](F)C5)nc3c2F)N2CC[C@H]3CCN1[C@H]3C2 [Example 72, (27S,31R)-18,33-difluoro-4-(((2R,7aS)-2-fluorotetrahydro-1H-pyrrolo[1,2-a]pyrrol-7a(5H)-yl)methoxy)-1,3,5,9,24-pentaazaheptacyclo[22.5.2.1˜6,10˜.1˜11,15˜.0˜2,7˜.0˜19,32˜.0˜27,31˜]tritriaconta-2,4,6,8,10(33),11,13,15(32),16,18-decaen-23-one]"
0.002 µM,0.001 µM,0.002 µM,0.04 µM,0.01 µM,–,–,–,"O=C1CCCCc2c(Cl)cc3[nH]ncc3c2-c2ncc3c(nc(OC[C@@]45CCCN4C[C@H](F)C5)nc3c2F)N2CCCC[C@H](C2)O1 [Example 82, (26R)-18-chloro-32-fluoro-4-(((2R,7aS)-2-fluorotetrahydro-1H-pyrrolo[1,2-a]pyrrol-7a(5H)-yl)methoxy)-25-oxa-1,3,5,9,14,15-hexaazahexacyclo[24.4.1.1~6,10~.0~2,7~.0~11,19~.0~12,16~]dotriaconta-2,4,6,8,10(32),11,13,16,18-nonaen-24-one]"
0.004 µM,0.003 µM,0.015 µM,0.16 µM,0.04 µM,–,–,–,"Cc1cc2[nH]ncc2c2c1CCCCC(=O)O[C@@H]1COCCN(C1)c1nc(OC[C@@]34CCCN3C[C@H](F)C4)nc3c(F)c-2ncc13 [Example 83, (26S)-32-fluoro-4-(((2R,7aS)-2-fluorotetrahydro-1H-pyrrolo[1,2-a]pyrrol-7a(5H)-yl)methoxy)-18-methyl-25,28-dioxa-1,3,5,9,14,15-hexaazahexacyclo[24.4.1.1~6,10~.0~2,7~.0~11,19~.0~12,16~]dotriaconta-2,4,6,8,10(32),11,13,16,18-nonaen-24-one]"
0.002 µM,0.001 µM,0.004 µM,0.05 µM,0.02 µM,–,–,–,"O=C1CCCCc2c(Cl)cc3[nH]ncc3c2-c2ncc3c(nc(OC[C@@]45CCCN4C[C@H](F)C5)nc3c2F)N2CCOC[C@H](C2)O1 [Example 84, (26S)-18-chloro-32-fluoro-4-(((2R,7aS)-2-fluorotetrahydro-1H-pyrrolo[1,2-a]pyrrol-7a(5H)-yl)methoxy)-25,28-dioxa-1,3,5,9,14,15-hexaazahexacyclo[24.4.1.1~6,10~.0~2,7~.0~11,19~.0~12,16~]dotriaconta-2,4,6,8,10(32),11,13,16,18-nonaen-24-one]"
0.005 µM,0.004 µM,0.058 µM,0.48 µM,0.4 µM,–,–,–,"CN1C[C@H](F)C[C@H]1COc1nc2c3cnc(c(F)c3n1)-c1c(c(Cl)cc3[nH]ncc13)CCCCC(=O)O[C@@H]1CCCCN2C1 [Example 85, (26R)-18-chloro-32-fluoro-4-(((2S,4R)-4-fluoro-1-methyl-2-pyrrolidinyl)methoxy)-25-oxa-1,3,5,9,14,15-hexaazahexacyclo[24.4.1.1~6,10~.0~2,7~.0~11,19~.0~12,16~]dotriaconta-2,4,6,8,10(32),11,13,16,18-nonaen-24-one]"
0.004 µM,0.002 µM,0.017 µM,0.14 µM,0.05 µM,–,–,–,"Cc1cc2[nH]ncc2c2c1CCCOC(=O)O[C@@H]1CCCCN(C1)c1nc(OC[C@@]34CCCN3C[C@H](F)C4)nc3c(F)c-2ncc13 [Example 98, (26R)-32-fluoro-4-(((2R,7aS)-2-fluorotetrahydro-1H-pyrrolo[1,2-a]pyrrol-7a(5H)-yl)methoxy)-18-methyl-23,25-dioxa-1,3,5,9,14,15-hexaazahexacyclo[24.4.1.1~6,10~.0~2,7~.0~11,19~.0~12,16~]dotriaconta-2,4,6,8,10(32),11,13,16,18-nonaen-24-one]"
0.007 µM,0.002 µM,0.038 µM,0.86 µM,0.3 µM,–,–,–,Cc1cc2[nH]ncc2c2c1CCCC(=O)OCC1CCCN(C1)c1nc(OC[C@@]34CCCN3C[C@H](F)C4)nc3c(F)c-2ncc13 (stereo partly shown) [Example 104]
0.002 µM,0.001 µM,0.01 µM,0.16 µM,0.06 µM,–,–,–,"Cc1cc2[nH]ncc2c2c1CCOC(=O)OC[C@@H]1CCCN(C1)c1nc(OC[C@@]34CCCN3C[C@H](F)C4)nc3c(F)c-2ncc13 [Example 126, (17R)-30-Fluoro-24-(((2R,7aS)-2-fluorotetrahydro-1H-pyrrolo[1,2-a]pyrrol-7a(5H)-yl)methoxy)-9-methyl-13,15-dioxa-5,6,21,23,25,29-hexaazahexacyclo[24.3.1.1˜17,21˜.0˜2,10˜.0˜3,7˜.0˜22,27˜]hentriaconta-1(30),2,4,7,9,22,24,26,28-nonaen-14-one bis(2,2,2-trifluoroacetate)]"
0.004 µM,0.003 µM,–,–,–,0.013 µM,0.23 µM,0.12 µM,O=C1CC[C@@H]2C[C@@H]2c2c(Cl)cc3[nH]ncc3c2-c2ncc3c(nc(OC[C@@]45CCCN4C[C@H](F)C5)nc3c2F)N2CCC[C@H](C2)O1 [Example 127]
0.006 µM,0.003 µM,0.041 µM,0.37 µM,0.23 µM,–,–,–,Cc1cc2[nH]ncc2c2c1C/C=C\COC[C@@H]1CCCN(C1)c1nc(OC[C@@]34CCCN3C[C@H](F)C4)nc3c(F)c-2ncc13 [Example 131]
0.005 µM,0.004 µM,0.083 µM,0.65 µM,0.1 µM,–,–,–,Fc1c2ncc3c(nc(OC[C@@]45CCCN4C[C@H](F)C5)nc13)N1CCCO[C@@H](COCCCCc3c(Cl)cc4[nH]ncc4c3-2)C1 [Example 140]

# From patent US20240294551A1 (AMGEN INC., priority 2022, published 2024)
